Assay results taken from the NIST ThermoML archive (doi:10.1021/je060189f).
± gives the expanded uncertainty stated by the source.

Test: mn = molality of the nth substance listed, in mol/kg
Conditions: 101 kPa, Liquid

## O=C(O)CCCCC(=O)O [1,6-hexanedioic acid] + O
293.15 K, m1 = 0.00708
  mass density: 998.48 ± 0.3 kg/m3
  viscosity: 1.006 ± 0.013 mPa·s
293.15 K, m1 = 0.01399
  mass density: 998.72 ± 0.3 kg/m3
  viscosity: 1.008 ± 0.013 mPa·s
293.15 K, m1 = 0.02122
  mass density: 999.01 ± 0.3 kg/m3
  viscosity: 1.01 ± 0.013 mPa·s
293.15 K, m1 = 0.02857
  mass density: 999.2 ± 0.3 kg/m3
  viscosity: 1.014 ± 0.013 mPa·s
293.15 K, m1 = 0.05669
  mass density: 1000.16 ± 0.3 kg/m3
  viscosity: 1.023 ± 0.013 mPa·s
293.15 K, m1 = 0.08401
  mass density: 1000.95 ± 0.3 kg/m3
  viscosity: 1.035 ± 0.013 mPa·s
293.15 K, m1 = 0.1125
  mass density: 1001.81 ± 0.31 kg/m3
  viscosity: 1.047 ± 0.013 mPa·s
293.15 K, m1 = 0.143
  mass density: 1002.78 ± 0.31 kg/m3
  viscosity: 1.06 ± 0.013 mPa·s
298.15 K, m1 = 0.01287
  mass density: 997.49 ± 0.31 kg/m3
298.15 K, m1 = 0.0154
  mass density: 997.52 ± 0.3 kg/m3
  viscosity: 0.8959 ± 0.011 mPa·s
298.15 K, m1 = 0.0257
  mass density: 997.83 ± 0.31 kg/m3
  viscosity: 0.8985 ± 0.011 mPa·s
298.15 K, m1 = 0.02702
  mass density: 997.91 ± 0.31 kg/m3
298.15 K, m1 = 0.03133
  mass density: 998.11 ± 0.31 kg/m3
  viscosity: 0.9017 ± 0.011 mPa·s
298.15 K, m1 = 0.03789
  mass density: 998.27 ± 0.3 kg/m3
  viscosity: 0.9028 ± 0.011 mPa·s
298.15 K, m1 = 0.04282
  mass density: 998.42 ± 0.3 kg/m3
298.15 K, m1 = 0.0455
  viscosity: 0.905 ± 0.011 mPa·s
298.15 K, m1 = 0.05256
  viscosity: 0.9074 ± 0.012 mPa·s
298.15 K, m1 = 0.05544
  mass density: 998.81 ± 0.3 kg/m3
298.15 K, m1 = 0.05776
  viscosity: 0.9102 ± 0.012 mPa·s
298.15 K, m1 = 0.06453
  viscosity: 0.9122 ± 0.012 mPa·s
298.15 K, m1 = 0.06825
  mass density: 999.2 ± 0.3 kg/m3
298.15 K, m1 = 0.06989
  mass density: 999.21 ± 0.3 kg/m3
  viscosity: 0.9136 ± 0.012 mPa·s
298.15 K, m1 = 0.08417
  mass density: 999.71 ± 0.3 kg/m3
298.15 K, m1 = 0.08956
  viscosity: 0.9197 ± 0.012 mPa·s
298.15 K, m1 = 0.09767
  mass density: 1000.15 ± 0.3 kg/m3
298.15 K, m1 = 0.1088
  mass density: 1000.49 ± 0.3 kg/m3
298.15 K, m1 = 0.1136
  mass density: 1000.66 ± 0.3 kg/m3
  viscosity: 0.9285 ± 0.012 mPa·s
298.15 K, m1 = 0.1266
  mass density: 1001.01 ± 0.3 kg/m3
298.15 K, m1 = 0.1377
  mass density: 1001.33 ± 0.3 kg/m3
303.15 K, m1 = 0.01287
  mass density: 996.07 ± 0.31 kg/m3
303.15 K, m1 = 0.0154
  mass density: 996.08 ± 0.31 kg/m3
  viscosity: 0.8022 ± 0.01 mPa·s
303.15 K, m1 = 0.0257
  mass density: 996.56 ± 0.32 kg/m3
  viscosity: 0.806 ± 0.01 mPa·s
303.15 K, m1 = 0.02702
  mass density: 996.51 ± 0.31 kg/m3
303.15 K, m1 = 0.03133
  mass density: 996.64 ± 0.31 kg/m3
  viscosity: 0.8073 ± 0.01 mPa·s
303.15 K, m1 = 0.03789
  mass density: 996.83 ± 0.31 kg/m3
  viscosity: 0.8085 ± 0.01 mPa·s
303.15 K, m1 = 0.04282
  mass density: 996.99 ± 0.31 kg/m3
303.15 K, m1 = 0.0455
  viscosity: 0.8116 ± 0.01 mPa·s
303.15 K, m1 = 0.05256
  viscosity: 0.8134 ± 0.01 mPa·s
303.15 K, m1 = 0.05544
  mass density: 997.38 ± 0.31 kg/m3
303.15 K, m1 = 0.05776
  viscosity: 0.8148 ± 0.011 mPa·s
303.15 K, m1 = 0.06453
  viscosity: 0.8157 ± 0.011 mPa·s
303.15 K, m1 = 0.06825
  mass density: 997.72 ± 0.31 kg/m3
303.15 K, m1 = 0.06989
  mass density: 997.73 ± 0.31 kg/m3
  viscosity: 0.8172 ± 0.011 mPa·s
303.15 K, m1 = 0.08417
  mass density: 998.28 ± 0.31 kg/m3
303.15 K, m1 = 0.08956
  viscosity: 0.8233 ± 0.011 mPa·s
303.15 K, m1 = 0.09767
  mass density: 998.74 ± 0.3 kg/m3
303.15 K, m1 = 0.1088
  mass density: 999.01 ± 0.3 kg/m3
303.15 K, m1 = 0.1136
  mass density: 999.1 ± 0.3 kg/m3
  viscosity: 0.8297 ± 0.011 mPa·s
303.15 K, m1 = 0.1266
  mass density: 999.56 ± 0.3 kg/m3
303.15 K, m1 = 0.1377
  mass density: 999.93 ± 0.3 kg/m3
308.15 K, m1 = 0.01287
  mass density: 994.41 ± 0.32 kg/m3
308.15 K, m1 = 0.0154
  mass density: 994.45 ± 0.31 kg/m3
  viscosity: 0.7229 ± 0.0095 mPa·s
308.15 K, m1 = 0.0257
  mass density: 994.79 ± 0.33 kg/m3
  viscosity: 0.7255 ± 0.0096 mPa·s
308.15 K, m1 = 0.02702
  mass density: 994.89 ± 0.31 kg/m3
308.15 K, m1 = 0.03133
  mass density: 994.96 ± 0.31 kg/m3
  viscosity: 0.7275 ± 0.0096 mPa·s
308.15 K, m1 = 0.03789
  mass density: 995.17 ± 0.31 kg/m3
  viscosity: 0.7285 ± 0.0096 mPa·s
308.15 K, m1 = 0.04282
  mass density: 995.34 ± 0.31 kg/m3
308.15 K, m1 = 0.0455
  viscosity: 0.7309 ± 0.0096 mPa·s
308.15 K, m1 = 0.05256
  viscosity: 0.7323 ± 0.0096 mPa·s
308.15 K, m1 = 0.05544
  mass density: 995.71 ± 0.31 kg/m3
308.15 K, m1 = 0.05776
  viscosity: 0.7334 ± 0.0097 mPa·s
308.15 K, m1 = 0.06453
  viscosity: 0.7353 ± 0.0097 mPa·s
308.15 K, m1 = 0.06825
  mass density: 996.07 ± 0.31 kg/m3
308.15 K, m1 = 0.06989
  mass density: 996.09 ± 0.31 kg/m3
  viscosity: 0.7362 ± 0.0097 mPa·s
308.15 K, m1 = 0.08417
  mass density: 996.55 ± 0.31 kg/m3
308.15 K, m1 = 0.08956
  viscosity: 0.7406 ± 0.0097 mPa·s
308.15 K, m1 = 0.09767
  mass density: 996.95 ± 0.31 kg/m3
308.15 K, m1 = 0.1088
  mass density: 997.25 ± 0.31 kg/m3
308.15 K, m1 = 0.1136
  mass density: 997.47 ± 0.31 kg/m3
  viscosity: 0.7457 ± 0.0098 mPa·s
308.15 K, m1 = 0.1266
  mass density: 997.79 ± 0.31 kg/m3
308.15 K, m1 = 0.1377
  mass density: 998.16 ± 0.31 kg/m3
313.15 K, m1 = 0.01287
  mass density: 992.54 ± 0.32 kg/m3
313.15 K, m1 = 0.0154
  mass density: 992.58 ± 0.32 kg/m3
  viscosity: 0.6559 ± 0.0088 mPa·s
313.15 K, m1 = 0.0257
  mass density: 992.89 ± 0.33 kg/m3
  viscosity: 0.6585 ± 0.0088 mPa·s
313.15 K, m1 = 0.02702
  mass density: 993.01 ± 0.32 kg/m3
313.15 K, m1 = 0.03133
  mass density: 993.19 ± 0.32 kg/m3
  viscosity: 0.66 ± 0.0088 mPa·s
313.15 K, m1 = 0.03789
  mass density: 993.29 ± 0.32 kg/m3
  viscosity: 0.6612 ± 0.0089 mPa·s
313.15 K, m1 = 0.04282
  mass density: 993.45 ± 0.32 kg/m3
313.15 K, m1 = 0.0455
  viscosity: 0.6625 ± 0.0089 mPa·s
313.15 K, m1 = 0.05256
  viscosity: 0.6639 ± 0.0089 mPa·s
313.15 K, m1 = 0.05544
  mass density: 993.89 ± 0.32 kg/m3
313.15 K, m1 = 0.05776
  viscosity: 0.6643 ± 0.0089 mPa·s
313.15 K, m1 = 0.06453
  viscosity: 0.6663 ± 0.0089 mPa·s
313.15 K, m1 = 0.06825
  mass density: 994.21 ± 0.32 kg/m3
313.15 K, m1 = 0.06989
  mass density: 994.21 ± 0.32 kg/m3
  viscosity: 0.6674 ± 0.0089 mPa·s
313.15 K, m1 = 0.08417
  mass density: 994.66 ± 0.32 kg/m3
313.15 K, m1 = 0.08956
  viscosity: 0.6708 ± 0.009 mPa·s
313.15 K, m1 = 0.09767
  mass density: 995.03 ± 0.31 kg/m3
313.15 K, m1 = 0.1088
  mass density: 995.33 ± 0.31 kg/m3
313.15 K, m1 = 0.1136
  mass density: 995.47 ± 0.31 kg/m3
  viscosity: 0.6754 ± 0.009 mPa·s
313.15 K, m1 = 0.1266
  mass density: 995.88 ± 0.31 kg/m3
313.15 K, m1 = 0.1377
  mass density: 996.19 ± 0.31 kg/m3

## O [water] + O=C(O)CCCCC(=O)O
293.15 K, m2 = 0
  viscosity: 1.002 ± 0.013 mPa·s
298.15 K, m2 = 0
  viscosity: 0.8904 ± 0.011 mPa·s
303.15 K, m2 = 0
  viscosity: 0.7975 ± 0.01 mPa·s
308.15 K, m2 = 0
  viscosity: 0.7194 ± 0.0095 mPa·s
313.15 K, m2 = 0
  viscosity: 0.653 ± 0.0088 mPa·s
